Assay [1] relates to GSTP1. The conditions noted are these: covalent binding to tyrosine residues on GSTP1; ref Louie et al. 2016; cited from earlier work.
Assay [2] deals with T1, recombinant human GSTP1 (Homo sapiens, UniProt P09211).
T1 construct: made in house; host or cells: E. coli XL-1 Blue
Nature of the assay: GSTP1 enzyme inhibition assay (GSH-CDNB conjugation, spectrophotometric). The class given is biochemical. As for the experimental part:
Glutathione S-transferase P1 (GSTP1) plays a significant role in cancer progression and chemotherapy resistance, with its overexpression diminishing chemotherapeutic efficacy across various tumor types. […] Enzyme inhibition assays with recombinant human GSTP1, kinetic analysis, molecular docking, and molecular dynamic simulations were employed. Enzymatic assays were performed in 0.1 M phosphate buffer (pH 6.5) at 30 °C, containing 1 mM EDTA, 1 mM GSH, and 1 mM CDNB. […] Graphical abstract
The human GST P1-1 gene from a K562 erythroleukemia cDNA library (GSTP1*A allele) was cloned into the pKXHP1 plasmid. This plasmid was transformed into E. coli XL-1 Blue cells via heat shock, grown on agar plates, and a single colony was cultured overnight at 37 °C in 2YT medium. […]
The enzyme activity of GSTP1 was measured using a spectrophotometric assay based on the conjugation of glutathione (GSH) to 1-chloro-2,4-dinitrobenzene (CDNB). […] The progress of the reaction was monitored by measuring the absorbance change at 340 nm, indicating the formation of the GSH-CDNB conjugate. Absorbance readings were recorded over 5 min using a SpectraMax M2 microplate reader. Percentage inhibition at each concentration was calculated, and IC₅₀ values were determined using GraphPad Prism 8.4. […]

Assay [3] concerns the target T2, GSTP1-1 (Homo sapiens, UniProt P09211).
T2 construct: made in house; host or cells: E. coli XL-1 Blue
Nature of the assay: Kinetic inhibition studies with GSTP1 (Lineweaver-Burk, varied GSH or CDNB). The class given is biochemical. The method, then: To assess the inhibition type and calculate the inhibition constant (Ki) values for the compounds, kinetic inhibition studies were performed with GSTP1.
By varying the concentration of one substrate while keeping the other at near-saturation, we assessed how each inhibitor interacted with GSTP1 under various substrate conditions. Lineweaver-Burk plots were used to analyze these interactions, allowing for the determination of the inhibition type (e.g., competitive, non-competitive, or mixed) and the Ki values for each compound. These kinetic parameters were calculated using GraphPad Prism, providing a comprehensive understanding of how the inhibitors influence GSTP1 enzymatic activity.
These plots were generated by varying the concentrations of substrates GSH and CDNB with different inhibitor concentrations.

Setting [4] is: CDNB as varied substrate, GSH near-saturating, read-out: Ki CDNB.
Setting [5] is: GSH as varied substrate, CDNB near-saturating, read-out: Ki GSH.

Like-named read-outs stand apart in the source and are kept apart here.

T2 sequence (P09211 whole entry): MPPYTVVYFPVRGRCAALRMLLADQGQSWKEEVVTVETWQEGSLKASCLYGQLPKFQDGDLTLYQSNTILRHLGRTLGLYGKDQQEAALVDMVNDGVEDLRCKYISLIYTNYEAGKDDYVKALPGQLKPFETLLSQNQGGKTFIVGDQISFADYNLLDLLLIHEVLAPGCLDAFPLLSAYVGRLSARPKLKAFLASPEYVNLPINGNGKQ
T1 sequence (P09211 whole entry): as above

Regarding `C#CCCCN(c1nc(Cl)nc(Cl)n1)[C@H](CC(C)C)C(=O)OC` [LAS17], the IC50 in assay [1] is 500 nM.
As to `Nc1nc(SSc2nc(N)nc3c2ncn3C2CC(O)C(CO)O2)c2ncn(C3CC(O)C(CO)O3)c2n1` (stereo not drawn) [6-thio-2′-dG-Dimer], the IC50 in assay [2] (as restated in the discussion) was determined as 339 nM. For the same compound, the “Type of inhibition CDNB” value in assay [3] (CDNB as varied substrate) is recorded as “Competitive”. In addition, the values for the Ki in assay [3] (setting [4]) and in assay [3] (setting [5]) were 723 nM and 972 nM, respectively. The “Type of inhibition GSH” value in assay [3] (GSH as varied substrate) is reported as “Mixed”; in assay [3] (GSH as varied substrate, listed as dimer form) it was “mixed-type”.
As to `Nc1nc2c(ncn2[C@H]2C[C@H](O)[C@@H](CO)O2)c(=S)[nH]1` [Compound 6-thio-dG, 6-thio-2′-deoxyguanosine], the IC50 in assay [2] (0.1 M phosphate buffer pH 6.5, 30 °C, 1 mM EDTA, 1 mM GSH, 1 mM CDNB, 2.5% DMSO) turned out to be 15100 nM. Further, in assay [3] (CDNB as varied substrate), the “Type of inhibition CDNB” value is “mixed-type”. For the same compound, the Ki worked out at 11400 nM in assay [3] (setting [4]) and 12300 nM in assay [3] (setting [5]). Also, the “Type of inhibition GSH” value in assay [3] (GSH as varied substrate) is “Noncompetitive”.

As a reminder, the IC50 is the concentration that inhibits the measured activity by half. As a reminder, the Ki is the dissociation constant of the complex between target and ligand, obtained from inhibition or displacement.

These data come from paper PMC12350525, “Investigation of the inhibitory effects of the telomere-targeted compounds on glutathione S-transferase P1” (Naunyn-Schmiedeberg's Archives of Pharmacology, 2025).
